Patent publication US8207314B2, “Tumor antigens for prevention and/or treatment of cancer” (Sanofi Pasteur Limited, priority 2003, dated 2012)

Assays:
[1] = system: autologous T-cell-enriched PBMC preparations; assay: IFN-γ ELISPOT of human T cells stimulated with AAC2-2 peptide pools; type: cell-based; conditions: human T cells from HLA-A-0201 donors, after third and fourth round of stimulation with AAC2-2 peptide pools
Protocol: Using the AAC2-2 amino acid sequence, a library of 9-mer peptides predicted to bind to HLA-A-0201 was constructed (Table III; “N” indicates the sequence is not found within the mouse homolog, while “Y” indicates the sequence is found within the mouse homolog). Twenty-three of the peptides were dissolved in DMSO at 10 mg/ml (Table IV) and used in human PBMC cultures to test for their ability to elicit CD8 and CD4αβ T-cell responses in vitro.
Using GM-CSF and IL-4, dendritic cells (DC) were generated from peripheral blood monocytes of blood donors expressing HLA-A-0201.
These DC were used to stimulate autologous T-cell-enriched PBMC preparations. The T cells were re-stimulated with autologous PBMC and then re-stimulated with CD40-ligand-activated autologous B cells. […] Peptide group 6 includes the following peptides: […] (aa 36-44), […] (aa 41-49), and […] (aa 95-103).

[2] = system: peptide-loaded TAP-deficient T2 cells; assay: CTL activity of AAC2-2 peptide pool-specific T-cell line; type: cell-based, human; conditions: HLA-A-0201-restricted, T-cell line stimulated by peptide group 6
Protocol: Thus, it was determined that AAC2-2 peptides are immunogenic in the human immune system.

[3] = system: Human PBMC from an HLA-A2.1 positive donor; assay: IFN-γ ELISPOT of human T cells activated with BFY3 peptide pools and deconvolution to single peptides; type: cell-based; conditions: BFY3 nonamer peptides; listing = result
Excerpt: Human PBMC from an HLA-A2.1 positive donor designated AP31 were activated with autologous dendritic cells pulsed with different pools of 9-mer peptides from the BFY3 antigen (see Table I for list). The activated T cells were re-stimulated after 12 days with activated autologous CD40-ligand-activated B cells pulsed with the same respective peptide pools for another 8 to 10 days. This secondary activation was repeated 2 more time for a total of 4 stimulations. The activated T cells were isolated after the 4th stimulation and subjected to ELISPOT analysis for human IFN-γ production against their respective BFY3 peptide pools as shown. The blue bars show reactivity against the BFY3 peptide pools and the red bars are for an HLA-A2.1-binding HIV peptide as a negative control. Standard deviations are indicated. The experiment was repeated 2 times on activated T cells from different rounds of peptide stimulation with the similar results (FIG. 17A).
The BFY3 peptide pools were deconvoluted and studied in IFN-γ ELISPOT assays. Stimulation was performed as described earlier for the other antigens described. After 4 rounds of stimulation, the T cells from each culture were harvested and subjected to ELISPOT analysis for IFN-γ production with each individual peptide in each pool. FIG. 17B illustrates individual peptide reactivity for each specific pool.

[4] = system: targets pulsed with corresponding peptide pools; assay: CTL killing of targets pulsed with BFY3 peptide pools or peptides; type: cell-based, human; conditions: for Peptides eliciting CTL activity (peptide pulsed targets): BFY3 nonamer peptides, listing = result; for recognition of single peptides by CTL: BFY3 peptides, peptide-pulsed targets
Protocol: (§1) In addition to ELISPOT analysis, human T cells activated by BFY3 peptides were assayed for reactivity. Ten pools of peptides consisting often peptides per pool used to generate CTL. These 10 groups of effectors used to kill targets pulsed with corresponding peptide pools. […]

[5] = system: CosA2 cells transfected with BFY3; assay: CTL killing of BFY3-transfected cells; type: cell-based; conditions: CTL generated from BFY3 peptide pools
Protocol: as §1

Sequence | IFN-γ production (ELISPOT) [1] | CTL activity killing peptide-loaded T2 target cells [2] | CTL activity killing peptide-loaded T2 target cells ([2]; listed as ILTDVTLLV) | Peptides eliciting strong IFN-γ ELISPOT activity [3] | Peptides eliciting CTL activity (peptide pulsed targets) [4] | recognition of single peptides by CTL [4] | killing of CosA2 cells transfected with BFY3 by CTL [5]
ILTDVTLLV [EC5] | dominant activity | dominant activity | dominant peptide | – | – | – | –
HAIEEVPHV [CLP 3344] | – | – | – | HAIEEVPHV | HAIEEVPHV | strongly recognized | responsible for this cytotoxicity
MLWKLTDNI [CLP 3320] | – | – | – | MLWKLTDNI | MLWKLTDNI | strongly recognized | responsible for this cytotoxicity
